Measured values as given in patent US20040091479A1, “T-cell epitope of the papillomavirus l1 and e7 protein and use thereof in diagnostics and therapy” (priority 2000, published 2004).

Columns and labels:
[1] = test system: P33-loaded RMA cells; experiment: 51Cr release: lysing P33-loaded RMA cells; assay type: cell-based, C57BL/6 mouse
Protocol: RMA cells were incubated at 37° C. for one hour with ^51Cr, washed three times with medium and divided into 2 aliquots. 10 μg of the P33 peptide/ml were added to one aliquot of the cells while the other aliquot served as the negative control in the absence of the peptide. In each case 2000 of the cells (=target cells) were then added to 40.000 T cells (=effector cells) in a total volume of 150 μl. The T cells had previously been stimulated for 5 weeks with a mixture composed of 43 peptides (peptides 1-43, in each case 1 μg/ml).
Assay mixtures for spontaneous and maximal lysis of the cells were set up in parallel. Target cells which were incubated with culture medium were used for the spontaneous lysis. For the maximal lysis, target cells were lysed by adding 0.5% Triton X100.
The assay mixtures were incubated at 37° C. for 5 h. 50 μl volumes of the supernatants from the assay mixtures were added to Luma plates and dried overnight at room temperature. On the following morning, the quantity of radioactive ^51Cr (counts) was determined using a Canberra-Packerd B Plate Counter and related to the maximally lysed cells in the Triton assay mixture. The % specific lysis was then determined using the formula:
x=100·(counts−spontaneous counts)/(maximal counts−spontaneous counts).

[2] = test system: CVLP-stimulated CD8-positive T cells; experiment: Restimulating HPV16 CVLP-stimulated T cells with P33-presenting BLCL (example 11); assay type: cell-based, human
Protocol: In analogy with example 6, human T cells derived from a non-HLA-typed blood donor were stimulated with HPV16L1ΔC*E71-55 CVLPs and harvested.
(§1) The T cells were then restimulated, at 37° C. and in 100 μl of medium, with 1 μg of peptide P33/ml and 10^5 antigen-presenting cells (donor-identical BLCL) in the presence of 10 IU of IL2/ml. Cells which were only incubated with buffer served as the negative control while cells which were incubated with HPV16 L1 peptide pool served as the positive control.
(§2) 1 μl of monensin was added after an hour. The cells were then incubated at 37° C. for a further 5 hours. After that, the cells were fixed and permeabilized and stained with α-human CD8/APC, with α-human CD4/PerCP and with α-human IFNγ/FITC. The labeling of the cells was examined in a FACScan Calibur and the results of the measurements were analyzed using Cellquest software.

[3] = test system: CVLP-stimulated human CD4-positive T cells; experiment: Restimulating HPV18 CVLP-stimulated T cells with BLCL presenting HPV18 peptide pools (example 6); assay type: cell-based; settings: peptide common to two reactive HPV18 pools; CD4/IFNγ
Protocol: Human T cells (4×10^5) from a non-HLA-typed blood donor were stimulated for 1 week with HPV18 L1ΔCDIE71-53DI CVLPs and HPV18 L1ΔACDIE71-60DI CVLPS, 800 U of human GM-CSF/ml and 500 U of human IL4/ml and also, for a further 5 weeks, with HPV18 L1ΔCDIE71-53DI CVLPs and HPV18 L1ΔCDIE71-6ODI CVLPs at 37° C., with the weekly addition of 1 μg of the CVLPs mixLure (ratio of the two constructs 1:1)/ml and 10^5 antigen-presenting cells (irradiated PMBC), and harvested.
The 20 mer peptides Q1 to 52 were assembled into peptide pools A to H and 1 to 7, respectively, in accordance with the matrix
The T cells were then restimulated, at 37° C. and in 100 μl of medium, with the peptide pools and 10^5 antigen-presenting cells (donor-identical BLCL) in the presence of 10 IU of IL2/ml. The quantities of the peptide pools which were used in this connection were such that. 1 μg/ml was added in the case of each individual peptide.
Cells which were only incubated with buffer served as the negative control while cells incubated with the HPV18 L1 peptide pool and the HPV18 E7 peptide pool, respectively, served as positive controls.
as §2, with “analyzed” for “examined”

[4] = test system: CVLP-stimulated CD4-positive T cells; experiment: Restimulating HPV18 CVLP-stimulated T cells with BLCL presenting HPV18 peptide pools (example 12); assay type: cell-based, human; settings: peptide common to two reactive HPV18 pools; CD4/IFNγ
Protocol: (§3) In analogy with example 6, human T cells derived from a non-HLA-typed blood donor were stimulated, at 37° C., with HPV18L1ΔCDIE71-53DI CVLPs and HPV18L1ΔCDIE71-60DI CVLPs and harvested.
as §1, with “the HPV18” for “1 μg of”, “pools from example 6” for “P33/ml”, “IL2/ml. Use was made, in this connection, of quantities of the peptide pools which were such that 1 μg/ml was added in the case of each individual peptide.” for “IL2/ml.”, “HPV18” for “HPV16”
as §2

[5] = test system: HPV18 CVLP-stimulated human T cells; experiment: Restimulating HPV18 CVLP-stimulated T cells with BLCL presenting Q38, Q39, Q46 or Q47 (example 13); assay type: cell-based
Protocol: In analogy with example 6, human T cells (4×10^5) derived from a non-HLA-typed blood donor were stimulated with HPV18L1ΔCDIE71-53DI CVLPs and HPV18L1ΔCDIE71-60DI CVLPs and harvested.
The T cells were then restimulated, at 37° C. and in 100 μl of medium, with in each case 1 μg of peptide Q38, Q39, Q46 or Q47/ml and 10^5 antigen-presenting cells (donor-identical BLCL) in the presence of 10 IU of IL2/ml. Cells which were only incubated with buffer served as the negative control while cells which were incubated with the HPV18 L1 peptide pool or the E7 peptide pool served as positive controls.
as §2

[6] = test system: human T cells; experiment: Summary of examples 3 to 18: epitopes recognized by human T cells; assay type: cell-based; settings: Table 4, HPV18 peptides, species human
[7] = test system: LKK cells; experiment: 51Cr release: lysing HPV18 peptide-loaded LKK cells (example 17); assay type: cell-based, murine
Protocol: In analogy with example 4, RMA or LKK cells were radioactively labeled with ^51Cr and incubated with the peptides (Q43 and Q44 in the upper part of FIG. 16 and Q49 in the lower part of FIG. 16) which are plotted on the X axis. Cells without peptide served as negative controls. T cells which had previously been stimulated with the peptide pool were then added.
The lysis of the RMA cells or LKK cells by the T cells was measured by the release of the ^51Cr and calculated as described in example 4.

[8] = test system: autologous peptide-loaded BLCL; experiment: Cytotoxicity test (chromium release assay) of HPV18 E786-94-specific T cells; assay type: cell-based, human; settings: effector to target ratio of 30:1, FIG. 17 bottom
Protocol: The predicted peptides were synthesized using standard methods (F moc method). […] For this, 1×10^5 PBMC derived from healthy, HLA-A2-positive donors were sown, in 100 μl of medium (RPMI 1640, 10% heat-inactivated AB plasma), in each well of a 96-well plate. 20 μg of peptide/ml were added to the culture medium. The cells were incubated at 37° C. and restimulated once per week with irradiated peptide-loaded autologous PBMC. The stimulator PBMC were incubated for 4 hours in medium containing 20 μg of peptide/ml. After the irradiation, they were diluted down to 1×10^4/100 μl with medium and added to the peptide-stimulated PBMC. For this, half the medium was aspirated from each well and 100 μl of the stimulator PBMC suspension were added. 10 U of IL-2/ml and 10 U of IL-7/ml were added from the 3rd stimulation onwards. From the 5th stimulation onwards, restimulation was carried out in the same manner using peptide-loaded autologous B lymphoblast cell lines (BLCL).
The cytotoxicity of HPV18 E786-94-specific T cells was determined in a chromium release assay. Autologous BLCL were used as the target cells. In each case, 5×10^5 cells were taken up in 100 μl of medium (RPMI 1640, 10% FCS) and treated with 20 μl of ^51chromium (NEN). For loading the BLCL with peptide, 50 μg of the corresponding peptide were added/ml. After that, the cells were incubated at room temperature for 2 hours while being carefully resuspended every 20-30 min. The cells were then washed 3 times with 5 ml of medium. For the sedimenting, the cells were in each case centrifuged at 1500 rpm for 5 min and then carefully resuspended. […]
The assay samples were incubated for 4 hours at 37° C., 98% atmospheric humidity and 5% CO2. […] On the following day, 150 μl of Microscint 40 scintillation fluid (Canberra-Packard, Deieich) were added and the numbers of distintegrations per minute in the individual assay samples were measured in the scintillation counter (Topcount, Canberra-Packard, Dreieich).
The specific lysis was calculated using the following formula: […]

[9] = test system: CVLP-stimulated CD4-positive T cells; experiment: Restimulating HPV18 CVLP-stimulated T cells with BLCL presenting pools or Q30 (example 15); assay type: cell-based, human
Protocol: as §3
The T cells were then restimulated, at 37° C. and in 100 μl of medium, with the peptide pools from example 6 and 10^5 antigen-presenting cells (donor-identical BLCL) in the presence of 10 IU of IL2/ml. Use was made, in this connection, of quantities of the peptide pools which were such that 1 μg/ml was added in the case of each individual peptide. Cells which were only incubated with buffer served as the negative control while cells which were incubated with the HPV18 L1 or E7 peptide pool served as positive controls (upper part of FIG. 14). In the case of the lower part of FIG. 14, the T cells were restimulated, at 37° C. and in 100 μl of medium, with peptide pools F and 4 and with 1 μg of peptide Q30/ml and 10^5 antigen-presenting cells (donor-identical BLCL) in the presence of 10 IU of IL2/ml.
as §2, with “[…],” for “CD8/APC,”

[10] = test system: T cell line generated with HeLa CD80/HLA-A2 transfectants (H7.1-A2); experiment: IFN-γ ELISpot of H7.1-A2-specific T cell line against peptide-loaded autologous PBMC; assay type: cell-based, human; settings: H7.1-A2-induced T cell line, FIG. 17 top

TTYKNTNFKEYLRHGEEYDL [P33, HPV16 L1 353-372]
specific lysis of target cells (51Cr release) ([1]; 10 μg P33/ml, effector:target 20, T cells stimulated with peptides P1-P43, FIG. 2): able to efficiently lyse
T cell epitope assignment ([1]; conclusion from FIG. 2): H2b-restricted cytotoxic T cell epitope
proportion of CD8-positive T cells reactive on the basis of IFNγ expression ([2]; 1 μg P33/ml, donor-identical BLCL, versus negative control, FIG. 10): markedly higher
T cell epitope assignment ([2]; conclusion from FIG. 10): contains a cytotoxic T cell epitope

VDLLCHEQLSDSEEENDEID [Q46, HPV18 E7 23-42]
T cell epitope assignment [3]: contain T helper epitopes
T cell epitope assignment (TH1) [4]: contain a TH1 epitope
proportion of reactive CD4-positive and IFNγ-positive T cells ([5]; 1 μg peptide/ml, donor-identical BLCL, FIG. 12 top left): markedly higher than in the negative control
proportion of CD8-positive and IL4-positive cells ([5]; 1 μg peptide/ml, FIG. 12 lower right): low, and comparable to the negative control
T cell epitope assignment (TH1) ([5]; conclusion from FIG. 12 top left): contain a TH1 epitope
Epitope type [6]: TH1

PQRHTMLCMCCKCEARIKLV [Q49, HPV18 E7 56-75]
T cell epitope assignment ([7]; conclusion from FIG. 16 lower part): H2k-restricted cytotoxic T cell epitope
specific lysis of target cells (51Cr release) ([7]; peptide-loaded LKK cells, effector:target 20, FIG. 16 lower part): able to efficiently lyse

HPV18 E77-15: control peptide; HPV18 E77-15 epitope described by Rudolf MP et al. (2001) (TLQDIVLHL; UniProt P06788 7-15, looked up, fragment)
specific lysis [8]: No specific lysis

HPV16 E628-36: control peptide in the chromium release assay (TTIHDIILE; UniProt P03126 28-36, looked up, fragment)
specific lysis [8]: No specific lysis

NNGVCWHNQLFVTVVDTTRS [Q30, HPV18 L1 320-339]
T cell epitope assignment (TH1) ([9]; peptide common to pools F and 4): contains a TH1 epitope
proportion of reactive CD4-positive and IFNγ-positive T cells, confirmation experiment ([9]; pools F or 4 or 1 μg Q30/ml compared with each other, FIG. 14): comparable
Epitope type [6]: TH1

HPV16 E728-36: control peptide in the ELISpot analysis (LNDSSEEED; UniProt P03129 28-36, looked up, fragment) [reference compound]
IFN-γ ELISpot reaction [10]: did not induce any IFN-γ secretion
